Key:
Format in all cases: in vivo
[1] = tested on: Rice water weevil [Lissorhoptrus oryzophilus (Kuschel)]; experiment: Rice water weevil topical (RWW), 48 hours; conditions: μg of test compound per weevil, female adults
How it was run: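 Female adult weevils (ten per dose) received 1 µl acetone droplets on the ventral abdomen and were held at about 25 °C with wet cotton and rice foliage. Mortality read at 48 h; LC50 from dose-mortality curves, given as µg compound per weevil, top dose 2.5 µg per weevil.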

[2] = tested on: Black Bean Aphid [Aphis fabae (Scop.)]; experiment: Black bean aphid spray test on nasturtium (BBA), 48 hours; conditions: percent of test compound in sprayed solution
How it was run: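 LC50, given as percent test compound in the sprayed liquid, was calculated from dosage-mortality curves using concentrations from 0.05% downward. Sprays in 50:50 acetone-water went to runoff on ~5 cm nasturtiums carrying 25-50 aphids of mixed ages, one day after infestation. Deaths were counted 48 h later under greenhouse conditions.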

[3] = tested on: Maize weevil [Sitophilus zeamais (Motschulsky)]; experiment: Maize weevil on dipped corn seeds (MW), 48 hours; conditions: percent in solution, adult weevils
How it was run: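 LC50, given as percent of compound in dipping solution, comes from dosage-mortality curves over concentrations descending from 0.01%. Four corn seeds soaked 2-3 s in 50:50 acetone:water solution were dried and held with 10 adult weevils, about 25° C, mortality read after 48 h.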

[4] = tested on: Aster Leafhopper [Macrosteles fascifrens (Stal)]; experiment: Aster leafhopper on dipped oat seedlings (LH), 48 hours; conditions: percent in solution, adults/nymphs
How it was run: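 Three ~10 cm oat seedlings per cup were dipped 2-3 seconds in 50-50 acetone-water compound solutions, dried, and caged with ten adult/nymph leafhoppers. Mortality was counted after 48 hours at concentrations from 0.05% downward. LC50, as percent compound in solution, came from dosage-mortality curves.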

[5] = tested on: Cabbage Looper [Trichoplusia ni (Hubner)]; experiment: Cabbage looper leaf dip (CL), 3-5 days; conditions: percent in solution, second-instar larvae
How it was run: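 Leaf dip, squash cotyledons, 50-50 acetone-water, top dose 0.1% and lower. 5 second-instar larvae/dish, moist filter paper, high-humidity chamber. Mortality at 3-5 d; LC50 (% in solution) from dosage-mortality curves.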

[6] = tested on: Tobacco Budworm [Heliothis virescens (Fabricius)] larvae; experiment: Tobacco budworm larvae, contact (TBW-C), 5 days; conditions: percent in solution, second-instar larvae
How it was run: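 Cotton cotyledons dipped 2–3 s in compound in 50-50 acetone-water, dried, then infested with 5 second-instar larvae and held 5 days at high humidity. Mortality scored; LC50 from dosage-mortality curves, expressed as percent compound in solution, concentrations from 0.1% downward.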

[7] = tested on: Tobacco Budworm [Heliothis virescens (Fabricius)] eggs; experiment: Tobacco budworm eggs (TBW-E); conditions: percent in solution; 2-day old eggs
How it was run: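 LC50 values (percent test compound in the dip solution) were calculated from dosage-mortality curves. Egg patches, 2 days old, were dipped in acetone solutions at concentrations from 0.1% downward and held at 78° F on rearing medium until control larvae hatched and fed.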

[8] = tested on: Housefly [Musca domestica]; experiment: Housefly contact mortality in dishes (HF), 48 hours; conditions: μg of test compound per 25 female flies
How it was run: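 Acetone solutions (with 0.01% peanut oil) dried onto dish bottoms, then 25 female flies, 1-2 days old, caged over the residue with sugar water. Mortality scored at 48 hours; LC50 from dosage-mortality curves, in μg per 25 female flies, top level 100 μg.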

[9] = tested on: Beet Armyworm (Spodoptera exigua); experiment: Beet armyworm leaf dip (BAW), 5 days; conditions: percent in solution; second-instar larvae; five days
How it was run: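 Sugar beet leaves dipped 2–3 s in compound diluted in 50:50 acetone-water, dried, then infested with five second-instar larvae in humid petri dishes. Mortality scored at 5 days; concentrations from 0.1% downward. LC50 from dosage-mortality curves, expressed as percent compound in solution.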

[10] = tested on: two-spotted mite [Tetranychus urticae (Koch)]; experiment: Two-spotted mite activity; conditions: initial testing level 0.05% in solution
Procedure: The compounds in Tables 1 and 2 were also tested for activity against the two-spotted mite [Tetranychus urticae (Koch)] and Western spotted cucumber beetle larvae [Diabrotica undecimpunctata undecimpunctata (Mannerheim)]. Initial testing levels were 0.05% (in solution) against the mite, and 25 ppm (in soil) against the beetle.

| SMILES | LC50 RWW [1] [µg] | LC50 BBA [2] [%] | LC50 MW [3] [%] | LC50 LH [4] [%] | LC50 CL [5] [%] | LC50 TBW C (contact) [6] [%] | LC50 TBW E (eggs) [7] [%] | LC50 HF [8] [µg] | LC50 BAW [9] [%] | activity in tests against twospotted mite [10] |
| --- | --- | --- | --- | --- | --- | --- | --- | --- | --- | --- |
| CC(C)C(=Nc1ccc(Cl)cc1)OCc1cccc(Oc2ccc(Cl)cc2)c1 [Compound 269] | > 2.5 | > 0.05 | > 0.01 | 0.003 | 0.0003 | 0.001 | 0.04 | 25 | 0.0024 | – |
| CC(C)C(=Nc1ccc(F)c(Br)c1)OCc1ccc(F)c(Oc2ccc(F)cc2)c1 [Compound 273] | > 2.5 | 0.0003 | 0.004 | 0.0003 | 0.000018 | 0.00025 | 0.015 | 7 | 0.0017 | – |
| CC(C)C(=Nc1ccc(F)c(C(F)(F)F)c1)OCc1ccc(F)c(Oc2ccc(F)cc2)c1 [Compound 277] | 0.065 | 0.0008 | > 0.01 | 0.0003 | 0.00001 | 0.0005 | 0.013 | 4 | 0.005 | – |
| CC(C)C(=Nc1ccc(F)c(F)c1)OCc1ccc(F)c(Oc2ccc(F)cc2)c1 [Compound 278] | 0.085 | 0.0005 | 0.0063 | 0.0003 | 0.00002 | 0.00026 | 0.008 | 3 | 0.0012 | – |
| CC(C)C(=Nc1ccc(OC(F)(F)F)cc1)OCc1ccc(F)c(Oc2ccc(F)cc2)c1 [Compound 286] | 0.09 | 0.0003 | 0.0039 | 0.0006 | 0.000024 | 0.00017 | 0.005 | 34 | 0.0004 | – |
| CC(C)C(=Nc1ccc(OC(F)(F)F)cc1)OCc1ccc(F)c(Oc2ccc(Cl)cc2)c1 [Compound 323] | 0.16 | > 0.05 | 0.0075 | 0.05 | 0.0006 | 0.00065 | 0.045 | > 100 | 0.0025 | – |
| CC(C)C(=Nc1ccc(F)c(Cl)c1F)OCc1cccc(Oc2ccc(F)cc2)c1 [Compound 352] | > 2.5 | 0.0003 | 0.0075 | 0.0004 | 0.000065 | 0.0004 | > 0.1 | 4.6 | > 0.1 | – |
| CC(C)C(=Nc1ccc(OC(F)(F)C(F)Cl)cc1)OCc1cccc(Oc2ccccc2)c1 (stereo not drawn) [Compound 418] | – | > 0.05 | > 0.01 | – | > 0.1 | – | > 0.1 | > 100 | – | demonstrated activity |
| CC(C)C(=Nc1ccc(OC(F)(F)C(F)Cl)cc1)OCc1ccc(F)c(Oc2ccccc2)c1 (stereo not drawn) [Compound 419] | – | > 0.05 | > 0.01 | – | > 0.1 | – | > 0.1 | > 100 | – | demonstrated activity |
